According to patent US10537567B2, “Kinase inhibitors for treatment of disease” (BioAxone BioSciences, Inc., priority 2017, dated 2020):

What was measured:
Abl = Abl (Homo sapiens, UniProt P00519); test: Second kinome screen; format: binding
Text: (§1) In the kinome screen BA-2017 had fewer off-target hits (Table 1) than BA-1049. […] An interesting hit from the kinome screen was on Abl (Table 1), an oncogene that also regulates many cellular activities, including vascular leakage.

[1] = system: rat midbrain dopaminergic neurons; test: MPP+ toxicity in cultured midbrain dopaminergic neurons; format: cell-based; conditions: 0.25-50 μM, 20 μM MPP+, 48 hours
Description: These in vitro experiments are conducted using primary cultures of embryonic rat midbrain dopaminergic neurons. MPP+ is known to cause the death of cultured midbrain dopaminergic neurons. Rho kinase and Abl kinase inhibitors are tested individually at varying concentrations for their ability to prevent MPP+-induced cell death.
Primary cultures of rat midbrain dopaminergic neurons are established from cells acutely isolated from the ventral midbrain of embryonic day 14 rats (Charles River; Wilmington, Mass.). The cells are plated in serum-free conditions (Neurobasal plus B-27 Supplements; Thermo-Fisher; Waltham, Mass.) onto glass coverslips coated with poly-ornithine and laminin as attachment factors. Cells are cultured overnight on the coated coverslips in a 37° C./5% CO2 tissue culture incubator prior to the initiation of the varying treatments.
On day 3 after plating, MPP+(Sigma Chemical; St. Louis, Mo.) is added to the medium at 20 μM final concentration. The cultures are allowed to continue for an additional 48 hours. At the end of the culture period, the cells are washed, and then fixed with 4% paraformaldehyde solution prior to permeabilization and blocking with 10% normal goat serum in PBS. […] Specimens are examined using fluorescence microscopy and the numbers of TH-positive neurons with non-pyknotic nuclei are counted in 6 to 8 high power fields per specimen.

[2] = biological target: T1, norepinephrine transporter (NET) (Homo sapiens, UniProt P23975); test: Safety screen; format: biochemical; conditions: 10,000 nM API
T1 construct: purchased DiscoverX
Description: (§2) A 468-target kinome screen and a safety screen were carried out to examine the off-target profiles of different kinase inhibitors (DiscoverX, Freemont, Calif.). The kinome screen is a binding assay where API interference of kinase domain/substrate binding is assessed as percent of control. Less than 10% binding (or >90% binding inhibition) is most biologically relevant and considered as a ‘hit’. BA-2017 only had 7 off-target hits compared to BA-1049 and Netarsudil, which both had 11 hits (Table 1) (Studirvant et al. 2016 Bioorg Med Chem Lett. 26(10):2475-2480). […] Published data for Netarsudil were with 200 times less API. […] The NET activity likely helps to decrease IOP but might increase hyperemia, while the SERT activity might have long-term safety consequences (Costagliola et al. 2004 CNS drugs 18(8): p. 475-484).
(§3) These targets include GPCRs, transporters, ion channels, nuclear receptors, non-kinase enzymes.

[3] = biological target: T2, serotonin transporter (SERT) (Homo sapiens, UniProt P31645); test: Safety screen; format: biochemical; conditions: 10,000 nM API
T2 construct: purchased DiscoverX
Description: as §2, §3

PKA = PKA (Homo sapiens, UniProt P17612); test: Single dose inhibition assay of key AGC class kinases; format: biochemical; conditions: 10 μM API
Description: Molecular modeling and rational drug design were used to create and screen over 50 ROCK inhibitors. These ROCK inhibitors were screened for selectivity for ROCK2 and ability to promote neurite outgrowth. Several lead inhibitors came out of this screen and further screened for inhibition of key AGC class kinases by a single dose inhibition assay performed with 10 μM active pharmaceutical ingredient (API). The lead compound is chiral. […] They have different selectivity for ROCK2 (Table 2) and different off-target profiles (Table 1; FIG. 1).

ROCK2 = ROCK2 (Homo sapiens, UniProt O75116); test: IC50 determined at 10 μM ATP; format: biochemical; set-up: purchased Eurofins Testing (Dundee, Scotland, UK)
Text: The data in Table 2 were obtained at ATP concentration below those corresponding to Km.

[4] = system: cultured primary cortical neurons; test: Beta-amyloid and phosphorylated Tau in cortical neurons from 3×-Tg AD mice; format: cell-based; conditions: 1, 10 or 50 μM, 24 or 48 hours
Text: Alzheimer's disease is the most common cause of dementia in the population. Pathologic hallmarks of the disease include the presence in the brain of beta-amyloid bearing plaques and neurofibrillary tangles containing hyperphosphorylated microtubule-associated protein Tau. The 3×-Tg AD mouse model was developed to serve as a rodent model for the development of the biochemical hallmarks of human Alzheimer's disease. This mouse strain harbors 3 transgenes encoding mutant Presenilin-1 (PS1), human Swedish mutant Amyloid Precursor Protein (APP-Swe), and mutant P301L-Tau and is obtained from Jackson Laboratories (Bar Harbor, Me.). […] Similarly, Cancino et al (Cancino et al.; Neurobiol. Aging; 2011; 32:1249) identified the role of increased c-Abl kinase activity in transgenic AD model mice to direct increased phosphorylation of Tau.
Whole brain cortices from one day old (P1) 3×-Tg AD mice (Jackson Labs) are dissected and then dissociated using trypsinization and trituration before being cultured under serum free conditions (NeuroBasal Medium plus B27 supplements; Thermo-Fisher) on dishes pre-coated with poly-ornithine and laminin as growth substrate. The cultures are plated in 24 well tissue culture plates, with 100 to 200,000 cells per well at plating. Cultures are maintained for 5 to 7 days, with half-volume medium changes every other day, before testing of inhibitor treatments. […] Protein extracts are prepared in RIPA buffer and protein concentrations in each extract are determined using the Pierce BCA assay (Pierce Biotechnology). Equivalent amounts of protein from each extract are separated on 4-12% polyacrylamide Bis-Tris gels run in MES buffer (Thermo-Fisher). After transferring to PVDF membranes, the Western blots are processed to examine the levels of beta-amyloid precursor protein (βPAPP), the peptide β-amyloid (Aβ), and levels of both phosphorylated and total tau protein.
For these Western blotting experiments, hyperphosphorylated Tau is detected using antibody AT8-phospho-Ser-202/Thr-205 (Pierce Biotechnology, Rockford, Ill.); total phosphorylated and nonphosphorylated tau is detected with Tau5 antibody (Calbiochem, San Diego, Calif.); total PAPP is detected using monoclonal antibody 22C11 (EMD-Millipore) and Aβ peptide levels are detected using monoclonal antibody 6E10 (BioLegend; San Diego, Calif.). The form of Aβ present can be estimated by comparison to purified Aβ 1-40, 1-42 peptides (AnaSpec; Fremont, Calif.) run as standards on companion gels.

468-target kinome screen = test: DiscoverX kinome screen, off-target hits; format: binding, human; conditions: 10,000 nM API
Description: as §2, §1

T2 sequence (P31645 whole entry): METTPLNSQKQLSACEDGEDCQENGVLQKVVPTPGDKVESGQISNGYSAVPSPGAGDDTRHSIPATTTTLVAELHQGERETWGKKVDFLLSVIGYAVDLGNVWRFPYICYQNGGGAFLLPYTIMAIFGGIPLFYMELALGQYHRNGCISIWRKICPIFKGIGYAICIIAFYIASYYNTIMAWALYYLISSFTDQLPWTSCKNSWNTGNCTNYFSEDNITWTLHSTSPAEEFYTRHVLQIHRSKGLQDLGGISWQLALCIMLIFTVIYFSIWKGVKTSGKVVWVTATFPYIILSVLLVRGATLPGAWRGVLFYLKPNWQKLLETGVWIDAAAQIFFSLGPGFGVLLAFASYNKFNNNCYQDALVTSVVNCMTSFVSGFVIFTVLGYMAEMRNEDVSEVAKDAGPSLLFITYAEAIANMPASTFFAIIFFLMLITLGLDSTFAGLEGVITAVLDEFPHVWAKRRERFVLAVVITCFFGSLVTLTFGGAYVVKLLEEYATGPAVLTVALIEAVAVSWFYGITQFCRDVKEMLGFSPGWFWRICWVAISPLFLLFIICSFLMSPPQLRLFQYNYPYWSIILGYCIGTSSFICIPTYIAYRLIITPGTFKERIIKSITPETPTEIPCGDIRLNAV
T1 sequence (P23975 whole entry): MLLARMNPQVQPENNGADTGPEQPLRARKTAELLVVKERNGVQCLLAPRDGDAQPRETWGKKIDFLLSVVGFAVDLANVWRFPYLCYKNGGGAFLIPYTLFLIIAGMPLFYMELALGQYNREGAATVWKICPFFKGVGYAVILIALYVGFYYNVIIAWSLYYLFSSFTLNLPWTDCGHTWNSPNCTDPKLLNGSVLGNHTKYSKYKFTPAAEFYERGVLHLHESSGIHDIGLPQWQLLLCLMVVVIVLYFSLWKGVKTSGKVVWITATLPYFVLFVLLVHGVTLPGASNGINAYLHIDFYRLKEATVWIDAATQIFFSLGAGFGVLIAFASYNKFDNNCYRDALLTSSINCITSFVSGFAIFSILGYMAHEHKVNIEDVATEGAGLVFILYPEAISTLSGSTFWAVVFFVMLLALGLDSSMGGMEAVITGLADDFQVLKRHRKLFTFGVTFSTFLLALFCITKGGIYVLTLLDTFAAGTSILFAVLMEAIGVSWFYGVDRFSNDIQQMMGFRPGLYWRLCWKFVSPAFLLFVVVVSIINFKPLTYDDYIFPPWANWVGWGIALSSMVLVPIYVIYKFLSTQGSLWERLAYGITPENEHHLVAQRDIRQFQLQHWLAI
Sequence of ROCK2 (O75116 whole entry): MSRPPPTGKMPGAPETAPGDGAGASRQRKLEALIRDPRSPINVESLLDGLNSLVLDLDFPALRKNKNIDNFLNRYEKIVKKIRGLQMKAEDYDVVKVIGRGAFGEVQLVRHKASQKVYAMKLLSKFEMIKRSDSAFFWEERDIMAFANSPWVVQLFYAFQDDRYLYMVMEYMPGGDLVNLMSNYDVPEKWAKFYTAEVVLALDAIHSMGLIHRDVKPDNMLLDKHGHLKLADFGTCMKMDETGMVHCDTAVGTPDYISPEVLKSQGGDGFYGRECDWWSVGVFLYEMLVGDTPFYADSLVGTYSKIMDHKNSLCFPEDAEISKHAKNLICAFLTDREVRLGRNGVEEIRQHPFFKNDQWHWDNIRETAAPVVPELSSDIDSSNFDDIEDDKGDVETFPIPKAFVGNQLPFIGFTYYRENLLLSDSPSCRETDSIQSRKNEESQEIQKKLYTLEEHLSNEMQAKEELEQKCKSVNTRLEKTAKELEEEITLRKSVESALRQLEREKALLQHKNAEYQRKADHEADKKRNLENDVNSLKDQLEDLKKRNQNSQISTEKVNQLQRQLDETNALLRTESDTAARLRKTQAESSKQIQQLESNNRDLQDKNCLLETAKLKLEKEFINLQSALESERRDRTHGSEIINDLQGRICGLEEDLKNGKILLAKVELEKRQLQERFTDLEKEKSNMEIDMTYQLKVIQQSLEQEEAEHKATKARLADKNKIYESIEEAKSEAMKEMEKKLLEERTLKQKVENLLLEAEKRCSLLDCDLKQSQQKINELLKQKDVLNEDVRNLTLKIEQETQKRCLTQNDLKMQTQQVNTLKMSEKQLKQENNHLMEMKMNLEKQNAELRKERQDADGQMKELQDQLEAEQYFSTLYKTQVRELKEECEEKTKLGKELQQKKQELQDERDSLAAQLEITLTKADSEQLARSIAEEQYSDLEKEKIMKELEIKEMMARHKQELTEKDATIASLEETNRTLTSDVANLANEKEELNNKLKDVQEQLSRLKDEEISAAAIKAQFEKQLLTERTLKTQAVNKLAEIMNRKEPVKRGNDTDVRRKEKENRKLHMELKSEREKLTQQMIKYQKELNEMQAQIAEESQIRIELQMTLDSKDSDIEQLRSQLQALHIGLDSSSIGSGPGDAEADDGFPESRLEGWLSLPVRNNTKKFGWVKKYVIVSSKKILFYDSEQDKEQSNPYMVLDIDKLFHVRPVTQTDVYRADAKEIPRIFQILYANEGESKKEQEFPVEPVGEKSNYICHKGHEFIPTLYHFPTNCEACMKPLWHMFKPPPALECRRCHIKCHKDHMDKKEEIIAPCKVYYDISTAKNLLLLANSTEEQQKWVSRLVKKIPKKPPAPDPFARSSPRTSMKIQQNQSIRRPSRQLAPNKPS
Sequence of Abl (P00519 whole entry): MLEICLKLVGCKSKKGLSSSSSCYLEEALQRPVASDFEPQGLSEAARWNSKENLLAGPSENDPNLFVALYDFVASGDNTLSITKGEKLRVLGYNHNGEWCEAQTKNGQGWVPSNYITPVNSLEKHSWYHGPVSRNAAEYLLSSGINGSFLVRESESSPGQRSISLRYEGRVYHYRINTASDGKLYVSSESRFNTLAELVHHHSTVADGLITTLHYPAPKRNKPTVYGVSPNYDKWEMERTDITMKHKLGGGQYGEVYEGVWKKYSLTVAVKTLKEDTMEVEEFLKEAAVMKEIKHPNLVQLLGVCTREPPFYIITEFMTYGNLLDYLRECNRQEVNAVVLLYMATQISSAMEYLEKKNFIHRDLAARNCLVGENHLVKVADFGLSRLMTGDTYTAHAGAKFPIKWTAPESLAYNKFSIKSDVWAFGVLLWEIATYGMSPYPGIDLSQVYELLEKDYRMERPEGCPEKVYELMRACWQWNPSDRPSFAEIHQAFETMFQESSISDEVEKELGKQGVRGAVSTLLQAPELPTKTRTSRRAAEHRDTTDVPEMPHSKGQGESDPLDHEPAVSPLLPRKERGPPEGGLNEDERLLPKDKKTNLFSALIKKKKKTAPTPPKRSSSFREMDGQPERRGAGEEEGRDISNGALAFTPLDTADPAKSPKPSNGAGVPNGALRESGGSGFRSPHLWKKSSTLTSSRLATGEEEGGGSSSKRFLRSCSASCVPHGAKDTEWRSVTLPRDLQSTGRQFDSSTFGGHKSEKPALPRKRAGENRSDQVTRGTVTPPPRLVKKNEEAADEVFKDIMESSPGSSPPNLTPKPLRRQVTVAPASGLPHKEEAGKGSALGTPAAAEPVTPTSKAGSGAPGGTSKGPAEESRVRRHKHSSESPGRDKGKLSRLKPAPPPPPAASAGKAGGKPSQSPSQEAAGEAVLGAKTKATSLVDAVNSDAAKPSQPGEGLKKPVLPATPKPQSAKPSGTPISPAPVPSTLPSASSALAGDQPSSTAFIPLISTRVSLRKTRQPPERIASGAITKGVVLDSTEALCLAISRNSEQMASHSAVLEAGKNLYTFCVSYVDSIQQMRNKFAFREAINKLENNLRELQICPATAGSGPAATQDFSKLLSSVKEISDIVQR

Structure (SMILES) | Binding to Abl (Abl) | Number of surviving TH-positive neurons [1] | Safety Screen % inhibition NET [2] | Safety Screen % inhibition SERT [3] | Inhibition of PKA (PKA) | IC50 (ROCK2; 10 μM ATP (below Km), * = preliminary) [µM] | Fold-difference (ROCK2; ROCK1 vs ROCK2 IC50 at 10 μM ATP) | Accumulation of phosphorylated forms of Tau protein [4] | Production of Aβ peptide [4] | Kinome Screen Other (other off-target kinase) (468-target kinome screen) | # Hits <10% binding (468-target kinome screen; hit = less than 10% binding (>90% binding inhibition))
C[C@H](N)C1CCN(S(=O)(=O)c2cccc3cnccc23)CC1 [BA-1076] | a second kinome screen did not confirm significant binding of BA-1076 to Abl | dose-dependent increase in the number of surviving neurons | none | none | Neither compound inhibited PKA | 0.73 | 14 | dose-dependent reduction in the accumulation of phosphorylated forms of Tau protein | reduced production of Aβ peptide | (ABL) | 7
C[C@H](N)C1CCN(S(=O)(=O)c2cccc3c(=O)[nH]ccc23)CC1 [BA-2057] | – | dose-dependent increase in the number of surviving neurons | none | none | – | – | – | dose-dependent reduction in the accumulation of phosphorylated forms of Tau protein | reduced production of Aβ peptide | none | –
